Molecular target: T1, human MR (Homo sapiens, UniProt P08235)
T1 construct: The full length human MR gene is cloned from a human kidney or human brain cDNA library; made in house; host or cells: Sf9 insect cells (baculovirus, pAcHLT transfer vector)
T1 sequence (P08235 1-984): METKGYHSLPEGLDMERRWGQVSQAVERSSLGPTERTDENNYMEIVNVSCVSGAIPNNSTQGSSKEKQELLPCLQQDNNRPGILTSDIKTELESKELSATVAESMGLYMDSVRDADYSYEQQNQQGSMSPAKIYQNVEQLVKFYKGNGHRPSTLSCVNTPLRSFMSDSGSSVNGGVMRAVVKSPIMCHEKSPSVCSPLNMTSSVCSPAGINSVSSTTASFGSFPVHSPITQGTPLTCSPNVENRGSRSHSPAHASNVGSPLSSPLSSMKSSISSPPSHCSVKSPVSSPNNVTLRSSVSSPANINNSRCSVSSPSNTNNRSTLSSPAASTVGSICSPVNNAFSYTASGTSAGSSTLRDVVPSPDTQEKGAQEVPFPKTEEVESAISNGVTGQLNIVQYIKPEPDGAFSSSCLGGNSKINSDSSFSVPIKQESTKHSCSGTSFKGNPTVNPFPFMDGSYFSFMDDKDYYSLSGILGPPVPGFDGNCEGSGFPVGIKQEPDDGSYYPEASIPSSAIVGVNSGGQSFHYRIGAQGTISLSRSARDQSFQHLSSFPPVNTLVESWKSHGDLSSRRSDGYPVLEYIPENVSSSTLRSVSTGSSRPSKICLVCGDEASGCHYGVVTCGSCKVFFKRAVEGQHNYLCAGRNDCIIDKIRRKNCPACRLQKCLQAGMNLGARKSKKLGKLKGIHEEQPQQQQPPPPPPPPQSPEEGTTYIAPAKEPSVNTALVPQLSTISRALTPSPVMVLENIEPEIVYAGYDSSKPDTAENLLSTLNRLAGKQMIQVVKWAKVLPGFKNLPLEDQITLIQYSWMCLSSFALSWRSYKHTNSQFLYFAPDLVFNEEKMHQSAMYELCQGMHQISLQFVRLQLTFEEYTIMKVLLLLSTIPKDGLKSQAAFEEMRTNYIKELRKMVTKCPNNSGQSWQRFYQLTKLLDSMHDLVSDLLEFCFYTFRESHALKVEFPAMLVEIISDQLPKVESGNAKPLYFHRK
Assay: Mineralocorticoid Receptor Binding Assay ([3H]-aldosterone displacement)
Conditions: full length human MR expressed in Sf9 cells, 0.5 nM [3H]-aldosterone
Summary of the method: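 Full-length human MR expressed in Sf9 cells; lysate (20-25 μg protein) incubated with 0.5 nM [3H]-aldosterone and test compound in molybdate/Tris/phosphate/glycerol buffer pH 7.5, 16 h at 4 °C. Bound ligand measured by filtration and scintillation counting; IC50 converted to Ki via Cheng-Prusoff.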

Row | Ki [nM] | Compound
1 | ≤ 500 | Cc1nc(CN2C(=O)C(c3cc(C)c(O)c(C)c3)(c3cc(C)c(O)c(C)c3)c3ccccc32)cs1 [Example 89, 3,3-Bis-(4-hydroxy-3,5-dimethyl-phenyl)-1-(2-methyl-thiazol-4-ylmethyl)-1,3-dihydro-indol-2-one]
2 | ≤ 500 | Cc1ccc2c(c1)C(c1cc(C)c(O)c(C)c1)(c1cc(C)c(O)c(C)c1)C(=O)N2Cc1csc(C)n1 [Example 93, 3,3-Bis-(4-hydroxy-3,5-dimethyl-phenyl)-5-methyl-1-(2-methyl-thiazol-4-ylmethyl)-1,3-dihydro-indol-2-one]
3 | ≤ 500 | Cc1cc(C2(c3cc(C)c(O)c(C)c3)C(=O)N(Cc3ccccn3)c3ccccc32)cc(C)c1O [Example 100, 3,3-Bis-(4-hydroxy-3,5-dimethyl-phenyl)-1-pyridin-2-ylmethyl-1,3-dihydro-indol-2-one]
4 | ≤ 500 | Cc1cc(C2(c3cc(C)c(O)c(C)c3)C(=O)N(CC3CC3)c3ccccc32)cc(C)c1O [Example 105, 1-Cyclopropylmethyl-3,3-bis-(4-hydroxy-3,5-dimethyl-phenyl)-1,3-dihydro-indol-2-one]
5 | ≤ 500 | Cc1cc(C2(c3cc(C)c(O)c(C)c3)C(=O)N(Cc3c(C)cccc3C)c3ccccc32)cc(C)c1O [Example 107, 1-(2,6-Dimethyl-benzyl)-3,3-bis-(4-hydroxy-3,5-dimethyl-phenyl)-1,3-dihydro-indol-2-one]
6 | ≤ 500 | Cc1cc(C2(c3cc(C)c(O)c(C)c3)C(=O)N(Cc3cc(C(F)(F)F)ccc3F)c3ccccc32)cc(C)c1O [Example 112, 1-(2-Fluoro-5-trifluoromethyl-benzyl)-3,3-bis-(4-hydroxy-3,5-dimethyl-phenyl)-1,3-dihydro-indol-2-one]
7 | ≤ 500 | Cc1cc(C2(c3cc(C)c(O)c(C)c3)C(=O)N(C3CCCC3)c3ccccc32)cc(C)c1O [Example 114, 1-Cyclopentyl-3,3-bis-(4-hydroxy-3,5-dimethyl-phenyl)-1,3-dihydro-indol-2-one]
8 | ≤ 500 | Cc1cc(C2(c3cc(C)c(O)c(C)c3)C(=O)N(Cc3ccc(N)cc3)c3ccccc32)cc(C)c1O [Example 117, 11-(4-Amino-benzyl)-3,3-bis-(4-hydroxy-3,5-dimethyl-phenyl)-1,3-dihydro-indol-2-one]
9 | ≤ 500 | Cc1cc(C2(c3cc(C)c(O)c(C)c3)C(=O)N(Cc3cccc(N)c3)c3ccccc32)cc(C)c1O [Example 118, 1-(3-Amino-benzyl)-3,3-bis-(4-hydroxy-3,5-dimethyl-phenyl)-1,3-dihydro-indol-2-one]
10 | ≤ 500 | Cc1cc(C2(c3cc(C)c(O)c(C)c3)C(=O)N(CCc3scnc3C)c3ccccc32)cc(C)c1O [Example 121, 3,3-Bis-(4-hydroxy-3,5-dimethyl-phenyl)-1-[2-(4-methyl-thiazol-5-yl)-ethyl]-1,3-dihydro-indol-2-one]
11 | ≤ 500 | COc1ccc(N2C(=O)C(c3cc(C)c(O)c(C)c3)(c3cc(C)c(O)c(C)c3)c3ccccc32)cc1 [Example 128, 3,3-Bis-(4-hydroxy-3,5-dimethyl-phenyl)-1-(4-methoxy-phenyl)-1,3-dihydro-indol-2-one]
12 | ≤ 500 | COc1cccc(N2C(=O)C(c3cc(C)c(O)c(C)c3)(c3cc(C)c(O)c(C)c3)c3ccccc32)c1 [Example 134, 3,3-Bis-(4-hydroxy-3,5-dimethyl-phenyl)-1-(3-methoxy-phenyl)-1,3-dihydro-indol-2-one]
13 | ≤ 500 | Cc1cc(C2(c3cc(C)c(O)c(C)c3)C(=O)N(c3cccnc3)c3ccccc32)cc(C)c1O [Example 135, 3,3-Bis-(4-hydroxy-3,5-dimethyl-phenyl)-1-pyridin-3-yl-1,3-dihydro-indol-2-one]

Continued, compound first:

Row | Compound | Ki [nM]
14 | Cc1cc(C2(c3cc(C)c(O)c(C)c3)C(=O)N(Cc3ccc(F)cc3)c3ccccc32)cc(C)c1O [Example 2] | ≤ 500
15 | Cc1cc(C2(c3cc(C)c(O)c(C)c3)C(=O)N(Cc3ccc(C(C)(C)C)cc3)c3ccccc32)cc(C)c1O [Example 7, 1-(4-tert-Butyl-benzyl)-3,3-bis-(4-hydroxy-3,5-dimethyl-phenyl)-1,3-dihydro-indol-2-one] | ≤ 500
16 | Cc1cc(C2(c3cc(C)c(O)c(C)c3)C(=O)N(Cc3cccc4ccccc34)c3ccccc32)cc(C)c1O [Example 10, 3,3-Bis-(4-hydroxy-3,5-dimethyl-phenyl)-1-naphthalen-1-ylmethyl-1,3-dihydro-indol-2-one] | ≤ 500
17 | COc1ccc2c(c1)C(c1cc(C)c(O)c(C)c1)(c1cc(C)c(O)c(C)c1)C(=O)N2Cc1ccccc1 [Example 16, 1-Benzyl-3,3-bis-(4-hydroxy-3,5-dimethyl-phenyl)-5-methoxy-1,3-dihydro-indol-2-one] | ≤ 500
18 | Cc1cc(C2(c3ccc(O)cc3)C(=O)N(Cc3ccccc3)c3ccccc32)cc(C)c1O (stereo not drawn) [Example 29, 1-Benzyl-3-(4-hydroxy-3,5-dimethyl-phenyl)-3-(4-hydroxy-phenyl)-1,3-dihydro-indol-2-one] | ≤ 500
19 | COc1ccccc1C(=O)CN1C(=O)C(c2cc(C)c(O)c(C)c2)(c2cc(C)c(O)c(C)c2)c2ccccc21 [Example 44, 3,3-Bis-(4-hydroxy-3,5-dimethyl-phenyl)-1-[2-(2-methoxy-phenyl)-2-oxo-ethyl]-1,3-dihydro-indol-2-one] | ≤ 500
20 | COc1cccc(C(=O)CN2C(=O)C(c3cc(C)c(O)c(C)c3)(c3cc(C)c(O)c(C)c3)c3ccccc32)c1 [Example 45, 3,3-Bis-(4-hydroxy-3,5-dimethyl-phenyl)-1-[2-(3-methoxy-phenyl)-2-oxo-ethyl]-1,3-dihydro-indol-2-one] | ≤ 500
21 | COc1ccc(C(=O)CN2C(=O)C(c3cc(C)c(O)c(C)c3)(c3cc(C)c(O)c(C)c3)c3ccccc32)cc1 [Example 46, 3,3-Bis-(4-hydroxy-3,5-dimethyl-phenyl)-1-[2-(4-methoxy-phenyl)-2-oxo-ethyl]-1,3-dihydro-indol-2-one] | ≤ 500
22 | COc1ccc(OC)c(C(=O)CN2C(=O)C(c3cc(C)c(O)c(C)c3)(c3cc(C)c(O)c(C)c3)c3ccccc32)c1 [Example 49, 1-[2-(2,5-Dimethoxy-phenyl)-2-oxo-ethyl]-3,3-bis-(4-hydroxy-3,5-dimethyl-phenyl)-1,3-dihydro-indol-2-one] | ≤ 500
23 | Cc1cc(C2(c3cc(C)c(O)c(C)c3)C(=O)N(Cc3ccccc3C#N)c3ccccc32)cc(C)c1O [Example 51, 2-[3,3-Bis-(4-hydroxy-3,5-dimethyl-phenyl)-2-oxo-2,3-dihydro-indol-1-ylmethyl]-benzonitrile] | ≤ 500
24 | Cc1cc(C2(c3cc(C)c(O)c(C)c3)C(=O)N(Cc3ccc(Cl)c(Cl)c3)c3ccccc32)cc(C)c1O [Example 52, 1-(3,4-Dichloro-benzyl)-3,3-bis-(4-hydroxy-3,5-dimethyl-phenyl)-1,3-dihydro-indol-2-one] | ≤ 500
25 | COC(=O)c1cccc(CN2C(=O)C(c3cc(C)c(O)c(C)c3)(c3cc(C)c(O)c(C)c3)c3ccccc32)c1 [Example 55, 3-[3,3-Bis-(4-hydroxy-3,5-dimethyl-phenyl)-2-oxo-2,3-dihydro-indol-1-ylmethyl]-benzoic acid methyl ester] | ≤ 500
26 | Cc1cc(C2(c3cc(C)c(O)c(C)c3)C(=O)N(Cc3ccc(C(F)(F)F)cc3)c3ccccc32)cc(C)c1O [Example 57, 3,3-Bis-(4-hydroxy-3,5-dimethyl-phenyl)-1-(4-trifluoromethyl-benzyl)-1,3-dihydro-indol-2-one] | ≤ 500
27 | Cc1cc(C2(c3cc(C)c(O)c(C)c3)C(=O)N(Cc3cccc(Cl)c3)c3ccccc32)cc(C)c1O [Example 60, 1-(3-Chloro-benzyl)-3,3-bis-(4-hydroxy-3,5-dimethyl-phenyl)-1,3-dihydro-indol-2-one] | ≤ 500
28 | Cc1cc(C2(c3cc(C)c(O)c(C)c3)C(=O)N(Cc3cccc(C(F)(F)F)c3)c3ccccc32)cc(C)c1O [Example 61, 3,3-Bis-(4-hydroxy-3,5-dimethyl-phenyl)-1-(3-trifluoromethyl-benzyl)-1,3-dihydro-indol-2-one] | ≤ 500
29 | Cc1cc(C2(c3cc(C)c(O)c(C)c3)C(=O)N(Cc3ccc(Br)cc3F)c3ccccc32)cc(C)c1O [Example 81, 1-(4-Bromo-2-fluoro-benzyl)-3,3-bis-(4-hydroxy-3,5-dimethyl-phenyl)-1,3-dihydro-indol-2-one] | ≤ 500
30 | Cc1cc(C2(c3cc(C)c(O)c(C)c3)C(=O)N(Cc3ccc(O)cc3)c3ccccc32)cc(C)c1O [Example 88, 1-(4-Hydroxy-benzyl)-3,3-bis-(4-hydroxy-3,5-dimethyl-phenyl)-1,3-dihydro-indol-2-one] | ≤ 500
